From patent US20240173307A1, “MODULATORS OF THE INTEGRATED STRESS PATHWAY” (Calico Life Sciences LLC, priority 2017, published 2024) come the findings set out here.

In general, EC50 refers to the concentration needed to bring the measured effect to its halfway point.

Structures are written as SMILES.

This assay relates to HEK293T cells carrying the ATF4 luciferase reporter. Put plainly: ATF4-Luc assay (in vitro model of vanishing white matter disease). Conditions: Homo sapiens, HEK-293T, 1 μg/mL tunicamycin, 7 hours. It is filed as cell-based. The procedure:
In order to test exemplary compounds of the invention in a cellular context, a stable VWMD cell line was first constructed. The ATF4 reporter was prepared by fusing the human full-length ATF4 5′-UTR (NCBI Accession No. BCO22088.2) in front of the firefly luciferase (FLuc) coding sequence lacking the initiator methionine as described in Sidrauski et al (eLife 2013). The construct was used to produce recombinant retroviruses using standard methods and the resulting viral supernatant was used to transduce HEK293T cells, which were then subsequently selected with puromycin to generate a stable cell line.
HEK293T cells carrying the ATF4 luciferase reporter were plated on polylysine coated 384-well plates (Greiner Bio-one) at 30,000 cells per well. Cells were treated the next day with 1 μg/mL tunicamycin and 200 nM of a compound of Formula (I) for 7 hours. Luminescence was measured using One Glo (Promega) as specified by the manufacturer. Cells were maintained in DMEM with L-glutamine supplemented with 10% heat-inactivated FBS (Gibco) and Antibiotic-Antimycotic solution (Gibco).
Table 2 below summarizes the EC50 data obtained using the ATF4-Luc assay for exemplary compounds of the invention.
Regarding `O=C(COc1ccc(Cl)c(F)c1)NC12CCC(C(=O)NCc3ccc(C(F)(F)F)cc3)(CC1)C[C@@H]2O` (single isomer, unassigned) [Compound 270], the EC50 was under 250 nM.

Consider `O=C(CNC(=O)C12CCC(NC(=O)COc3ccc(Cl)c(F)c3)(CC1)C[C@@H]2O)Cc1ccccc1` [Compound 277, (2S)-4-[2-(4-chloro-3-fluorophenoxy)acetamido]-2-hydroxy-N-(2-oxo-3-phenylpropyl)bicyclo[2.2.2]octane-1-carboxamide], for which the EC50 was under 250 nM.

Regarding `O=C(COc1ccc(Cl)c(F)c1)NC12CC(C(=O)Nc3ccc(OCC(F)(F)F)nc3)(C1)C2` [Compound 310, 3-[2-(4-chloro-3-fluorophenoxy)acetamido]-N-[6-(2,2,2-trifluoroethoxy)pyridin-3-yl]bicyclo[1.1.1]pentane-1-carboxamide], the EC50 is under 250 nM.

Regarding `O=C(COc1ccc(Cl)c(F)c1)NC12CCC(C(=O)NCc3ccccn3)(CC1)CC2` [Compound 259, 4-[2-(4-chloro-3-fluorophenoxy)acetamido]-N-[(pyridin-2-yl)methyl]bicyclo[2.2.2]octane-1-carboxamide], the EC50 was in the range of 500 to 1000 nM.

For `O=C(COc1ccc(Cl)c(Cl)c1)NC12CC(C(=O)Nc3ccncc3)(C1)C2` [Compound 296, 3-[2-(3,4-dichlorophenoxy)acetamido]-N-(pyridin-4-yl)bicyclo[1.1.1]pentane-1-carboxamide], the EC50 is under 250 nM.

Consider `Cc1ccc(NC(=O)C23CC(NC(=O)COc4ccc(Cl)c(F)c4)(C2)C3)nc1` [Compound 299, 3-[2-(4-chloro-3-fluorophenoxy)acetamido]-N-(5-methylpyridin-2-yl)bicyclo[1.1.1]pentane-1-carboxamide], for which the EC50 is under 250 nM.

Take `NC(=O)c1ccc(CNC(=O)C23CC(NC(=O)COc4ccc(Cl)c(F)c4)(C2)C3)nc1` [Compound 339, 6-[({3-[2-(4-chloro-3-fluorophenoxy)acetamido]bicyclo[1.1.1]pentane-1-carbonyl}amino)methyl]pyridine-3-carboxamide]: the EC50 was over 2000 nM.

As to `O=C(COc1ccc(Cl)c(F)c1)NC12CCC(C(=O)NCC(=O)c3ccc(Cl)cc3)(CC1)[C@@H](O)C2` [Compound 273, (2S)-4-[2-(4-chloro-3-fluorophenoxy)acetamido]-N-[2-(4-chlorophenyl)-2-oxoethyl]-2-hydroxybicyclo[2.2.2]octane-1-carboxamide], the concentration for a half-maximal effect (EC50) is under 250 nM.

As to `O=C(COc1ccc(Cl)c(F)c1)NC12CC(C(=O)Nc3cc(CO)ccn3)(C1)C2` [Compound 313, 3-[2-(4-chloro-3-fluorophenoxy)acetamido]-N-[4-(hydroxymethyl)pyridin-2-yl]bicyclo[1.1.1]pentane-1-carboxamide], the EC50 was 1000 to 2000 nM.

As for `O=C(COc1ccc(Cl)c(F)c1)NC12CCC(C(=O)NCc3ccc(Cl)c(F)c3)(CC1)OC2` [Compound 334, 4-[2-(4-chloro-3-fluorophenoxy)acetamido]-N-[(4-chloro-3-fluorophenyl)methyl]-2-oxabicyclo[2.2.2]octane-1-carboxamide], the EC50 was in the range of 250 to 500 nM.

As to `O=C(COc1ccc(Cl)c(F)c1)NC12CCC(C(=O)NCc3cc(C(F)(F)F)ccn3)(CC1)CC2` [Compound 332, 4-[2-(4-chloro-3-fluorophenoxy)acetamido]-N-{[4-(trifluoromethyl)pyridin-2-yl]methyl}bicyclo[2.2.2]octane-1-carboxamide], the EC50 is under 250 nM.

Consider `CCOc1cnc(NC(=O)C23CC(NC(=O)COc4ccc(Cl)c(F)c4)(C2)C3)cn1` [Compound 307, 3-[2-(4-chloro-3-fluorophenoxy)acetamido]-N-(5-ethoxypyrazin-2-yl)bicyclo[1.1.1]pentane-1-carboxamide], for which the EC50 is 250 to 500 nM.

For the compound `O=C(COc1ccc(Cl)c(F)c1)NC12CCC(C(=O)NCc3ccc(C(F)(F)F)cc3)(CC1)[C@@H](O)C2` (single isomer, unassigned) [Compound 266], the EC50 is under 250 nM.

On to `O=C(COc1ccc(Cl)c(F)c1)NC12CC(C(=O)Nc3cnc(C(F)F)cn3)(C1)C2` [Compound 284, 3-[2-(4-chloro-3-fluorophenoxy)acetamido]-N-[5-(difluoromethyl)pyrazin-2-yl]bicyclo[1.1.1]pentane-1-carboxamide], for which the EC50 is under 250 nM.

Turning to `O=C(COc1ccc(Cl)c(F)c1)NC12CC(C(=O)NC(CO)c3ccc(Cl)cc3)(C1)C2` (stereo not drawn) [Compound 318, 3-[2-(4-chloro-3-fluorophenoxy)acetamido]-N-[1-(4-chlorophenyl)-2-hydroxyethyl]bicyclo[1.1.1]pentane-1-carboxamide], the EC50 was over 2000 nM.

Take `O=C(COc1ccc(Cl)c(F)c1)NC12CC(C(=O)N(CCO)Cc3ccc(Cl)c(F)c3)(C1)C2` [Compound 343, 3-[2-(4-chloro-3-fluorophenoxy)acetamido]-N-[(4-chloro-3-fluorophenyl)methyl]-N-(2-hydroxyethyl)bicyclo[1.1.1]pentane-1-carboxamide]: the EC50 was in the range of 1000 to 2000 nM.

With `O=C(COc1ccc(Cl)c(F)c1)NC12CCC(C(=O)NCc3ccc(OC(F)F)cn3)(CC1)CC2` [Compound 265, 4-[2-(4-chloro-3-fluorophenoxy)acetamido]-N-{[5-(difluoromethoxy)pyridin-2-yl]methyl}bicyclo[2.2.2]octane-1-carboxamide], the EC50 was under 250 nM.

Consider `O=C(COc1ccc(Cl)c(F)c1)NC12CC(C(=O)Nc3ccc(OC(F)(F)F)cn3)(C1)C2` [Compound 287, 3-[2-(4-chloro-3-fluorophenoxy)acetamido]-N-[5-(trifluoromethoxy)pyridin-2-yl]bicyclo[1.1.1]pentane-1-carboxamide], for which the EC50 is under 250 nM.

On to `O=C(COc1ccc(Cl)c(Cl)c1)NC12CCC(C(=O)NCc3ccc(C(F)(F)F)cc3)(CC1)[C@H](O)C2` (single isomer, unassigned) [Compound 263], for which the EC50 is under 250 nM.

`O=C(COc1ccc(Cl)c(F)c1)NC12CCC(C(=O)NCc3nc4ccccc4[nH]3)(CC1)CC2` [Compound 327, N-[(1H-benzimidazol-2-yl)methyl]-4-[2-(4-chloro-3-fluorophenoxy)acetamido]bicyclo[2.2.2]octane-1-carboxamide]: the EC50 was under 250 nM.

Take `O=C(COc1ccc(Cl)c(F)c1)NC12CC(C(=O)Nc3ccncc3)(C1)C2` [Compound 301, 3-[2-(4-chloro-3-fluorophenoxy)acetamido]-N-(pyridin-4-yl)bicyclo[1.1.1]pentane-1-carboxamide]: the EC50 is under 250 nM.

As to `O=C(COc1ccc(Cl)c(F)c1)NC12CCC(C(=O)NCc3ccc(Cl)cc3)(CC1)CC2` [Compound 260, 4-[2-(4-chloro-3-fluorophenoxy)acetamido]-N-[(4-chlorophenyl)methyl]bicyclo[2.2.2]octane-1-carboxamide], the EC50 was under 250 nM.

On to `O=C(COc1ccc(Cl)c(F)c1)NC12CCC(C(=O)NCc3ccc(OC(F)F)cn3)(C1)C2` [Compound 256, 4-[2-(4-chloro-3-fluorophenoxy)acetamido]-N-{[5-(difluoromethoxy)pyridin-2-yl]methyl}bicyclo[2.1.1]hexane-1-carboxamide], for which the EC50 fell in the range of 1000 to 2000 nM.

Turning to `O=C(COc1ccc(Cl)c(F)c1)NC12CCC(C(=O)NCc3nc4cc(F)c(F)cc4[nH]3)(CC1)CC2O` (stereo not drawn) [Compound 319, 4-[2-(4-chloro-3-fluorophenoxy)acetamido]-N-[(5,6-difluoro-1H-benzimidazol-2-yl)methyl]-3-hydroxybicyclo[2.2.2]octane-1-carboxamide], the EC50 is under 250 nM.

As for `O=C(COc1ccc(Cl)c(F)c1)NC12CC(C(=O)Nc3ccc(OC(F)F)cn3)(C1)C2` [Compound 309, 3-[2-(4-chloro-3-fluorophenoxy)acetamido]-N-[5-(difluoromethoxy)pyridin-2-yl]bicyclo[1.1.1]pentane-1-carboxamide], the EC50 was under 250 nM.

Turning to `O=C(COc1ccc(Cl)c(Cl)c1)NC12CCC(C(=O)NCc3ccc(C(F)(F)F)cc3)(CC1)C(O)C2` (stereo not drawn) [Compound 255, 4-[2-(3,4-dichlorophenoxy)acetamido]-2-hydroxy-N-{[4-(trifluoromethyl)phenyl]methyl}bicyclo[2.2.2]octane-1-carboxamide], the EC50 was under 250 nM.

Regarding `CCOC(=O)c1csc(NC(=O)C23CC(NC(=O)COc4ccc(Cl)c(F)c4)(C2)C3)n1` [Compound 312, ethyl 2-({3-[2-(4-chloro-3-fluorophenoxy)acetamido]bicyclo[1.1.1]pentane-1-carbonyl}amino)-1,3-thiazole-4-carboxylate], the EC50 was in the range of 250 to 500 nM.

As to `O=C(COc1ccc(Cl)c(F)c1)NC12CC(C(=O)NCc3ccc(C(F)F)cn3)(C1)C2` [Compound 345, 3-[2-(4-chloro-3-fluorophenoxy)acetamido]-N-{[5-(difluoromethyl)pyridin-2-yl]methyl}bicyclo[1.1.1]pentane-1-carboxamide], the EC50 lay within 250 to 500 nM.

On to `O=C(COc1ccc(Cl)c(F)c1)NC12CCC(C(=O)NCc3ccc(C(F)(F)F)cc3)(CC1)C(O)C2` (stereo not drawn) [Compound 110, 4-[2-(4-chloro-3-fluorophenoxy)acetamido]-2-hydroxy-N-{[4-(trifluoromethyl)phenyl]methyl}bicyclo[2.2.2]octane-1-carboxamide], for which the EC50 is under 250 nM.

In the case of `O=C(COc1ccc(Cl)c(F)c1)NC12CC(C(=O)Nc3cccnc3)(C1)C2` [Compound 300, 3-[2-(4-chloro-3-fluorophenoxy)acetamido]-N-(pyridin-3-yl)bicyclo[1.1.1]pentane-1-carboxamide], the EC50 is under 250 nM.
